In ChEMBL document CHEMBL1671860, “Role of Cj1211 in natural transformation and transfer of antibiotic resistance determinants in Campylobacter jejuni” (2008):
Values after ≈ are worked out from the molar mass of the structure shown. Active and inactive are the calls of the source. The calls are words filed in the database; no cut-off is given here.

Key:
[1] = tested on: Campylobacter; experiment: Antibacterial activity against Campylobacter by Etest; assay type: functional
[2] = tested on: Campylobacter jejuni; experiment: Antibacterial activity against Campylobacter jejuni JB201 infected in chicken assessed as decrease in bacterial colonization at 50 mg/L; assay type: functional, organism-based
[3] = tested on: Campylobacter jejuni; experiment: Antibacterial activity against Cj1211-positive Campylobacter jejuni harboring aphA3 and tet(O) genes; assay type: functional
[4] = tested on: Campylobacter jejuni; experiment: Antibacterial activity against Cj1211-negative Campylobacter jejuni harboring aphA3 and tet(O) genes; assay type: functional

| Structure (SMILES) | MIC [1] [µg/mL] | Activity [2] | MIC [3] [µg/mL] | MIC [4] [µg/mL] |
| --- | --- | --- | --- | --- |
| O=C(O)c1cn(C2CC2)c2cc(N3CCNCC3)c(F)cc2c1=O [CIPROFLOXACIN] | > 32 | – | – | – |
| CCN1CCN(c2cc3c(cc2F)c(=O)c(C(=O)O)cn3C2CC2)CC1 | – | Active | – | – |
| CN(C)[C@@H]1C(O)=C(C(N)=O)C(=O)[C@@]2(O)C(O)=C3C(=O)c4c(O)cccc4[C@@](C)(O)[C@H]3C[C@@H]12 [TETRACYCLINE] | – | – | 16 (≈ 36 µM) | 16 (≈ 36 µM) |
| NC[C@H]1O[C@H](O[C@H]2[C@H](O)[C@@H](O[C@H]3O[C@H](CO)[C@@H](O)[C@H](N)[C@H]3O)[C@H](N)C[C@@H]2N)[C@H](O)[C@@H](O)[C@@H]1O [KANAMYCIN] | – | – | > 256 | > 256 |
